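Compound exposure: 48 hours, 5 concentrations, 96-well plates. Abbreviation: GI50, concentration required for 50% inhibition of growth. At the TGI there is no net growth.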
Columns and labels:
Test in all cases: inhibition of tumour cell growth, NCI panel, 48 h
[1] = test system: 786-0 renal
[2] = test system: A498 renal
[3] = test system: ACHN renal
[4] = test system: BT-549 breast
[5] = test system: CAKI-1 renal
[6] = test system: CCRF-CEM leukemia
[7] = test system: COLO 205 colon
[8] = test system: DU-145 prostate
[9] = test system: EKVX NSCLC
[10] = test system: HCC-2998 colon
[11] = test system: HCT-116 colon
[12] = test system: HCT-15 colon
[13] = test system: HL-60(TB) leukemia
[14] = test system: HOP-62 NSCLC
[15] = test system: HS 578T breast
[16] = test system: HT29 colon
[17] = test system: K-562 leukemia
[18] = test system: KM12 colon
[19] = test system: M14 melanoma
[20] = test system: MALME-3M melanoma
[21] = test system: MCF7 breast
[22] = test system: MDA-MB-231 breast
[23] = test system: MDA-MB-435
[24] = test system: MOLT-4 leukemia
[25] = test system: NCI-H226 lung
[26] = test system: NCI-H23 lung
[27] = test system: NCI-H460 lung
[28] = test system: NCI/ADR-RES ovarian
[29] = test system: OVCAR-3 ovarian
[30] = test system: OVCAR-4 ovarian
[31] = test system: OVCAR-5 ovarian
[32] = test system: OVCAR-8 ovarian
[33] = test system: PC-3 prostate
[34] = test system: RPMI-8226 leukemia
[35] = test system: RXF 393 renal
[36] = test system: SF-268 CNS
[37] = test system: SF-295 CNS
[38] = test system: SF-539 CNS
[39] = test system: SK-MEL-2 melanoma
[40] = test system: SK-MEL-28 melanoma
[41] = test system: SK-MEL-5 melanoma
[42] = test system: SK-OV-3 ovarian
[43] = test system: SN12C renal
[44] = test system: SNB-19 CNS
[45] = test system: SNB-75 CNS
[46] = test system: SW-620 colon
[47] = test system: T-47D breast
[48] = test system: TK-10 renal
[49] = test system: U251 CNS
[50] = test system: UACC-257 melanoma
[51] = test system: UACC-62 melanoma
[52] = test system: UO-31 renal

Question: CCn1cc(C(=O)O)c(=O)c2cc(F)c(N3CCN(S(=O)(=O)c4ccc(Cl)cc4)CC3)cc21 was tested. Which GI50 [1] did it give?
Answer: The GI50 was 3.77 µM.

Question: And the TGI [1]?
Answer: The TGI was greater than 100 µM.

Question: And the GI50 [2]?
Answer: Its GI50 is 1.81 µM.

Question: What about the TGI [2] of the same compound?
Answer: The TGI was 7.47 µM.

Question: And the GI50 [3]?
Answer: Its GI50 is 3.09 µM.

Question: What about the TGI [3] of the same compound?
Answer: Its TGI is 9.87 µM.

Question: And the GI50 [4]?
Answer: Its GI50 is 2.44 µM.

Question: What about the TGI [4] of the same compound?
Answer: The TGI was 7.27 µM.

Question: And the GI50 [5]?
Answer: The GI50 was 2.75 µM.

Question: What about the TGI [5] of the same compound?
Answer: The TGI was 7.06 µM.

Question: And the GI50 [6]?
Answer: The GI50 was 2.93 µM.

Question: What about the TGI [6] of the same compound?
Answer: The TGI was greater than 100 µM.

Question: And the GI50 [7]?
Answer: The GI50 was 2.62 µM.

Question: And the TGI [7]?
Answer: Its TGI is 5.84 µM.

Question: And the GI50 [8]?
Answer: The GI50 was 4.11 µM.

Question: What about the TGI [8] of the same compound?
Answer: The TGI was greater than 100 µM.

Question: What about the GI50 [9] of the same compound?
Answer: The GI50 was 2.25 µM.

Question: And the TGI [9]?
Answer: The TGI was 9.89 µM.

Question: And the GI50 [10]?
Answer: The GI50 was 4.1 µM.

Question: What about the TGI [10] of the same compound?
Answer: Its TGI is greater than 100 µM.

Question: What about the GI50 [11] of the same compound?
Answer: The GI50 was 3.18 µM.

Question: And the TGI [11]?
Answer: The TGI was greater than 100 µM.

Question: And the GI50 [12]?
Answer: Its GI50 is 3.62 µM.

Question: What about the TGI [12] of the same compound?
Answer: Its TGI is greater than 100 µM.

Question: What about the GI50 [13] of the same compound?
Answer: The GI50 was 2.18 µM.

Question: And the TGI [13]?
Answer: Its TGI is 4.81 µM.

Question: And the GI50 [14]?
Answer: The GI50 was 4.47 µM.

Question: What about the TGI [14] of the same compound?
Answer: Its TGI is greater than 100 µM.

Question: What about the GI50 [15] of the same compound?
Answer: The GI50 was 4.52 µM.

Question: And the TGI [15]?
Answer: Its TGI is greater than 100 µM.

Question: And the GI50 [16]?
Answer: Its GI50 is 2.64 µM.

Question: What about the TGI [16] of the same compound?
Answer: Its TGI is 6.21 µM.

Question: What about the GI50 [17] of the same compound?
Answer: The GI50 was 2.91 µM.

Question: And the TGI [17]?
Answer: Its TGI is greater than 100 µM.

Question: What about the GI50 [18] of the same compound?
Answer: Its GI50 is 4.07 µM.

Question: What about the TGI [18] of the same compound?
Answer: Its TGI is greater than 100 µM.

Question: And the GI50 [19]?
Answer: Its GI50 is 2.85 µM.

Question: What about the TGI [19] of the same compound?
Answer: Its TGI is greater than 100 µM.

Question: What about the GI50 [20] of the same compound?
Answer: The GI50 was 1.99 µM.

Question: And the TGI [20]?
Answer: Its TGI is 5.25 µM.

Question: What about the GI50 [21] of the same compound?
Answer: The GI50 was 2.98 µM.

Question: What about the TGI [21] of the same compound?
Answer: The TGI was greater than 100 µM.

Question: What about the GI50 [22] of the same compound?
Answer: The GI50 was 2.51 µM.

Question: And the TGI [22]?
Answer: Its TGI is greater than 100 µM.

Question: What about the GI50 [23] of the same compound?
Answer: The GI50 was 2.47 µM.

Question: And the TGI [23]?
Answer: Its TGI is 7.55 µM.

Question: What about the GI50 [24] of the same compound?
Answer: Its GI50 is 3.83 µM.

Question: And the TGI [24]?
Answer: Its TGI is greater than 100 µM.

Question: And the GI50 [25]?
Answer: The GI50 was 3.02 µM.

Question: What about the TGI [25] of the same compound?
Answer: Its TGI is greater than 100 µM.

Question: What about the GI50 [26] of the same compound?
Answer: Its GI50 is 2.67 µM.

Question: And the TGI [26]?
Answer: Its TGI is 7.15 µM.

Question: And the GI50 [27]?
Answer: The GI50 was 3.16 µM.

Question: What about the TGI [27] of the same compound?
Answer: The TGI was greater than 100 µM.

Question: And the GI50 [28]?
Answer: Its GI50 is 2.98 µM.

Question: And the TGI [28]?
Answer: Its TGI is 8.99 µM.

Question: And the GI50 [29]?
Answer: Its GI50 is 3.51 µM.

Question: What about the TGI [29] of the same compound?
Answer: Its TGI is greater than 100 µM.

Question: What about the GI50 [30] of the same compound?
Answer: The GI50 was 2.2 µM.

Question: What about the TGI [30] of the same compound?
Answer: Its TGI is 7.57 µM.

Question: And the GI50 [31]?
Answer: The GI50 was 4.25 µM.

Question: And the TGI [31]?
Answer: Its TGI is greater than 100 µM.

Question: What about the GI50 [32] of the same compound?
Answer: The GI50 was 2.8 µM.

Question: And the TGI [32]?
Answer: Its TGI is greater than 100 µM.

Question: And the GI50 [33]?
Answer: Its GI50 is 2.31 µM.

Question: What about the TGI [33] of the same compound?
Answer: The TGI was 8.22 µM.

Question: And the GI50 [34]?
Answer: The GI50 was 3.08 µM.

Question: What about the TGI [34] of the same compound?
Answer: Its TGI is greater than 100 µM.

Question: And the GI50 [35]?
Answer: Its GI50 is 3.32 µM.

Question: What about the TGI [35] of the same compound?
Answer: Its TGI is greater than 100 µM.

Question: And the GI50 [36]?
Answer: The GI50 was 3.85 µM.

Question: And the TGI [36]?
Answer: Its TGI is greater than 100 µM.

Question: What about the GI50 [37] of the same compound?
Answer: The GI50 was 3.78 µM.

Question: And the TGI [37]?
Answer: Its TGI is 11.8 µM.

Question: What about the GI50 [38] of the same compound?
Answer: The GI50 was 4.12 µM.

Question: And the TGI [38]?
Answer: Its TGI is greater than 100 µM.

Question: And the GI50 [39]?
Answer: Its GI50 is 2.57 µM.

Question: And the TGI [39]?
Answer: Its TGI is 5.67 µM.

Question: What about the GI50 [40] of the same compound?
Answer: The GI50 was 4.88 µM.

Question: What about the TGI [40] of the same compound?
Answer: The TGI was greater than 100 µM.

Question: And the GI50 [41]?
Answer: The GI50 was 1.8 µM.

Question: And the TGI [41]?
Answer: Its TGI is 3.51 µM.

Question: And the GI50 [42]?
Answer: Its GI50 is 3.28 µM.

Question: What about the TGI [42] of the same compound?
Answer: The TGI was 9.23 µM.

Question: What about the GI50 [43] of the same compound?
Answer: The GI50 was 2.92 µM.

Question: What about the TGI [43] of the same compound?
Answer: The TGI was greater than 100 µM.

Question: What about the GI50 [44] of the same compound?
Answer: Its GI50 is 3.97 µM.

Question: And the TGI [44]?
Answer: Its TGI is greater than 100 µM.

Question: And the GI50 [45]?
Answer: The GI50 was 2.6 µM.

Question: What about the TGI [45] of the same compound?
Answer: The TGI was 9.81 µM.

Question: And the GI50 [46]?
Answer: Its GI50 is 3.43 µM.

Question: And the TGI [46]?
Answer: The TGI was greater than 100 µM.

Question: What about the GI50 [47] of the same compound?
Answer: The GI50 was 3.2 µM.

Question: What about the TGI [47] of the same compound?
Answer: Its TGI is 14.3 µM.

Question: What about the GI50 [48] of the same compound?
Answer: Its GI50 is 3.73 µM.

Question: And the TGI [48]?
Answer: Its TGI is greater than 100 µM.

Question: And the GI50 [49]?
Answer: The GI50 was 3.1 µM.

Question: What about the TGI [49] of the same compound?
Answer: The TGI was greater than 100 µM.

Question: And the GI50 [50]?
Answer: The GI50 was 2.16 µM.

Question: What about the TGI [50] of the same compound?
Answer: Its TGI is 5.5 µM.

Question: What about the GI50 [51] of the same compound?
Answer: The GI50 was 2.02 µM.

Question: And the TGI [51]?
Answer: Its TGI is 7.44 µM.

Question: What about the GI50 [52] of the same compound?
Answer: The GI50 was 2.07 µM.

Question: What about the TGI [52] of the same compound?
Answer: The TGI was 7.66 µM.
